Measured values: patent publication US20090326037A1 (priority 2005, published 2009)
Counter-ions that a name gives are not always drawn. Like-named read-outs stand apart in the source and are kept apart here.

Columns and labels:
[1] = tested on: influenza virus A/PR/8/34; assay type: cell-based; conditions: influenza virus A/PR/8/34, MDCK cells; concentration not given
[2] = Toxicity (lethal effect, LD50) in mice; assay type: in vivo; conditions: endogastrically, observation 14 days
Procedure: (§1) Determination of toxicity of 1-methyl-2-phenylthiomethyl-3-carbethoxy-5-oxy-6-bromindol sulfon as compared with arbidol.
(§2) The administration of the preparations was carried out endogastrically, the period of observation of the animals was 14 days.

[3] = Toxicity (lethal effect, LD50) in rats; assay type: in vivo; conditions: endogastrically, observation 14 days
Procedure: as §1, §2

[4] = tested on: avian influenza virus (H5N1); assay type: in vivo, white mice; conditions: orally
[5] = tested on: influenza A/Singapore/1/57 virus; experiment: microbe, parasite or virus in culture; assay type: cell-based; conditions: for Percent of inhibition of OD 490: added 2 hours after infection

CCOC(=O)c1c(CSc2ccccc2)n(C)c2cc(Br)c(O)c(CN(C)C)c12 [Arbidol, 1-methyl-2-phenylthiomethyl-3-carbethoxy-4-dimethylaminomethyl-5-oxy-6-bromindol hydrochloride]
Percent of suppression of virus reproduction [1]: 60%
Lethal effect upon administration to mice ([2]; Dose 100 mg/kg): 0/6
Lethal effect upon administration to mice ([2]; Dose 250 mg/kg): 0/6
Lethal effect upon administration to mice ([2]; Dose 500 mg/kg): 1/6
Lethal effect upon administration to mice ([2]; Dose 1000 mg/kg): 3/6
Lethal effect upon administration to mice ([2]; Dose 3000 mg/kg): 6/6
LD50 at 14 days ([2]; mouse, in vivo, oral, mice): 860 ± 50 mg/kg
Lethal effect upon administration to rats ([3]; Dose 100 mg/kg): 0/6
Lethal effect upon administration to rats ([3]; Dose 250 mg/kg): 0/6
Lethal effect upon administration to rats ([3]; Dose 500 mg/kg): 1/6
Lethal effect upon administration to rats ([3]; Dose 1000 mg/kg): 3/6
Lethal effect upon administration to rats ([3]; Dose 3000 mg/kg): 6/6
LD50 at 14 days ([3]; rat, in vivo, oral, rats): 1720 ± 70 mg/kg
Surviving mice, % ([4]; Arbidol 30 mg/kg + Oseltamivir 0.25 mg/kg): 70%
Surviving mice, % ([4]; Arbidol 30 mg/kg + Oseltamivir 1.0 mg/kg): 85%
Surviving mice, % ([4]; Arbidol 30 mg/kg + Oseltamivir 2.5 mg/kg): 100%
Surviving mice, % ([4]; Arbidol 30 mg/kg alone (Oseltamivir 0 mg/kg)): 65%
suppression of virus reproduction ([5]; 1 μg of arbidol with 10-12 mg of zanamivir or oseltamivir): 100%
Percent of inhibition of OD 490 ([5]; A or B 0.3 μg/ml + Zanamivir 0.3 μg): 20%
Percent of inhibition of OD 490 ([5]; A or B 0.3 μg/ml + Zanamivir 1 μg): 30%
Percent of inhibition of OD 490 ([5]; A or B 0.3 μg/ml + Zanamivir 3.3 μg): 37%
Percent of inhibition of OD 490 ([5]; A or B 0.3 μg/ml + Zanamivir 10 μg): 48%
Percent of inhibition of OD 490 ([5]; A or B 0.3 μg/ml + Zanamivir 33 μg): 60%
Percent of inhibition of OD 490 ([5]; A or B 1 μg/ml + Zanamivir 0.3 μg): 33%
Percent of inhibition of OD 490 ([5]; A or B 1 μg/ml + Zanamivir 3.3 μg): 46%
Percent of inhibition of OD 490 ([5]; A or B 1 μg/ml + Zanamivir 10 μg): 100%
Percent of inhibition of OD 490 ([5]; A or B 1 μg/ml + Zanamivir 33 μg): 100%
Percent of inhibition of OD 490 ([5]; A or B 3 μg/ml + Zanamivir 0.3 μg): 60%
Percent of inhibition of OD 490 ([5]; A or B 3 μg/ml + Zanamivir 1 μg): 58%
Percent of inhibition of OD 490 ([5]; A or B 3 μg/ml + Zanamivir 3.3 μg): 93%
Percent of inhibition of OD 490 ([5]; A or B 3 μg/ml + Zanamivir 10 μg): 100%
Percent of inhibition of OD 490 ([5]; A or B 3 μg/ml + Zanamivir 33 μg): 100%
Percent of inhibition of OD 490 ([5]; A or B 5 μg/ml + Zanamivir 0.3 μg): 69%
Percent of inhibition of OD 490 ([5]; A or B 5 μg/ml + Zanamivir 1 μg): 85%
Percent of inhibition of OD 490 ([5]; A or B 5 μg/ml + Zanamivir 3.3 μg): 88%
Percent of inhibition of OD 490 ([5]; A or B 5 μg/ml + Zanamivir 10 μg): 100%
Percent of inhibition of OD 490 ([5]; A or B 5 μg/ml + Zanamivir 33 μg): 100%
Percent of inhibition of OD 490 ([5]; A or B 10 μg/ml + Zanamivir 0.3 μg): 71%
Percent of inhibition of OD 490 ([5]; A or B 10 μg/ml + Zanamivir 1 μg): 85%
Percent of inhibition of OD 490 ([5]; A or B 10 μg/ml + Zanamivir 3.3 μg): 98%
Percent of inhibition of OD 490 ([5]; A or B 10 μg/ml + Zanamivir 10 μg): 100, 100%
Percent of inhibition of OD 490 ([5]; A or B 10 μg/ml + Zanamivir 33 μg): 100, 100%
Percent of inhibition of OD 490 ([5]; A or B 10 μg/ml alone (Zanamivir 0)): 22%
Percent of inhibition of OD 490 ([5]; A or C 0.3 μg/ml + Oseltamivir 0.4 μg): 35%
Percent of inhibition of OD 490 ([5]; A or C 0.3 μg/ml + Oseltamivir 4.1 μg): 37%
Percent of inhibition of OD 490 ([5]; A or C 0.3 μg/ml + Oseltamivir 12.3 μg): 47%
Percent of inhibition of OD 490 ([5]; A or C 1 μg/ml + Oseltamivir 0.4 μg): 48%
Percent of inhibition of OD 490 ([5]; A or C 1 μg/ml + Oseltamivir 1.2 μg): 59%
Percent of inhibition of OD 490 ([5]; A or C 1 μg/ml + Oseltamivir 4.1 μg): 56%
Percent of inhibition of OD 490 ([5]; A or C 1 μg/ml + Oseltamivir 12.3 μg): 100%
Percent of inhibition of OD 490 ([5]; A or C 1 μg/ml + Oseltamivir 41 μg): 100%
Percent of inhibition of OD 490 ([5]; A or C 3 μg/ml + Oseltamivir 0.4 μg): 62%
Percent of inhibition of OD 490 ([5]; A or C 3 μg/ml + Oseltamivir 1.2 μg): 58%
Percent of inhibition of OD 490 ([5]; A or C 3 μg/ml + Oseltamivir 4.1 μg): 90%
Percent of inhibition of OD 490 ([5]; A or C 3 μg/ml + Oseltamivir 12.3 μg): 100%
Percent of inhibition of OD 490 ([5]; A or C 3 μg/ml + Oseltamivir 41 μg): 100, 100%
Percent of inhibition of OD 490 ([5]; A or C 5 μg/ml + Oseltamivir 0.4 μg): 79%
Percent of inhibition of OD 490 ([5]; A or C 5 μg/ml + Oseltamivir 1.2 μg): 84%
Percent of inhibition of OD 490 ([5]; A or C 5 μg/ml + Oseltamivir 4.1 μg): 100%
Percent of inhibition of OD 490 ([5]; A or C 5 μg/ml + Oseltamivir 12.3 μg): 98%
